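Where inhibition never reached the appropriate level, the endpoint shown equals the highest concentration tested. Otherwise, values were interpolated linearly from a five-concentration, 48-hour dose response in 96-well plates. TGI denotes the concentration required for complete inhibition of growth.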
How the values were obtained:
Experiment in all cases: NCI-60 cell line screen, 48 h
UO-31 renal = tested on: UO-31 renal
NCI-H23 lung = tested on: NCI-H23 lung
OVCAR-4 ovarian = tested on: OVCAR-4 ovarian
SR leukemia = tested on: SR leukemia
SK-OV-3 ovarian = tested on: SK-OV-3 ovarian
SW-620 colon = tested on: SW-620 colon
CAKI-1 renal = tested on: CAKI-1 renal
HOP-62 NSCLC = tested on: HOP-62 NSCLC
HCT-15 colon = tested on: HCT-15 colon
KM12 colon = tested on: KM12 colon
SK-MEL-2 melanoma = tested on: SK-MEL-2 melanoma
A549 NSCLC = tested on: A549 NSCLC
SF-539 CNS = tested on: SF-539 CNS
OVCAR-8 ovarian = tested on: OVCAR-8 ovarian
COLO 205 colon = tested on: COLO 205 colon
HCC-2998 colon = tested on: HCC-2998 colon
MDA-MB-435 = tested on: MDA-MB-435
MCF7 breast = tested on: MCF7 breast
PC-3 prostate = tested on: PC-3 prostate

| SMILES | TGI (UO-31 renal) [µM] | TGI (NCI-H23 lung) [µM] | TGI (OVCAR-4 ovarian) [µM] | TGI (SR leukemia) [µM] | TGI (SK-OV-3 ovarian) [µM] | TGI (SW-620 colon) [µM] | TGI (CAKI-1 renal) [µM] | TGI (HOP-62 NSCLC) [µM] | TGI (HCT-15 colon) [µM] | TGI (KM12 colon) [µM] | TGI (SK-MEL-2 melanoma) [µM] | TGI (A549 NSCLC) [µM] | TGI (SF-539 CNS) [µM] | TGI (OVCAR-8 ovarian) [µM] | TGI (COLO 205 colon) [µM] | TGI (HCC-2998 colon) [µM] | TGI (MDA-MB-435) [µM] | TGI (MCF7 breast) [µM] | TGI (PC-3 prostate) [µM] |
| --- | --- | --- | --- | --- | --- | --- | --- | --- | --- | --- | --- | --- | --- | --- | --- | --- | --- | --- | --- |
| CCN(CC)CCNC(=O)c1ccc([N+](=O)[O-])cc1OC | > 100 | > 100 | > 100 | > 100 | > 100 | > 100 | > 100 | > 100 | > 100 | > 100 | > 100 | > 100 | > 100 | > 100 | > 100 |  |  |  |  |
| CCOc1ccc2ccccc2c1NC1=NCCO1 | 64.7 | > 100 | > 100 | > 100 | > 100 | > 100 |  | 74.2 | > 100 | 76.7 |  | > 100 | > 100 | > 100 | > 100 | > 100 | > 100 | > 100 |  |
| CC(O)c1c2c(cc3c1CC1(C3)Cc3cc4c(c(C(C)O)c3C1)CCC4)CCC2 (stereo not drawn) | 3.26 | 40.4 | 17.5 | 29.8 | 60.8 |  |  | 38.8 | 41.1 | 38.4 | 43.3 | 33.1 | 46.4 | > 100 | 28.6 | 40.2 | 31.9 | 59.5 | 34.9 |
| Cc1c(C(=O)CSc2nc3ccc([N+](=O)[O-])cc3[nH]2)c(=O)n(-c2ccccc2)n1C | > 100 | > 100 | > 100 | > 100 | > 100 | > 100 | > 100 | > 100 | > 100 | > 100 | > 100 | > 100 | > 100 | > 100 | > 100 | > 100 |  |  |  |
| FC(F)(F)P1C2C=CC(CC2)C1(F)F (stereo not drawn) | > 100 | > 100 | > 100 |  | > 100 | > 100 | > 100 | > 100 | > 100 | > 100 | > 100 | > 100 | > 100 | > 100 | > 100 | > 100 |  |  |  |
| COc1cc(C2C(Cl)C(=O)N2n2cnc3ccccc3c2=O)cc(OC)c1OC (stereo not drawn) | > 100 | > 100 | > 100 | > 100 | > 100 | > 100 | > 100 | > 100 | > 100 | > 100 | > 100 | > 100 |  | > 100 | > 100 | > 100 |  |  |  |
| CCOc1ccc(N2C(=O)C3c4[nH]c5ccccc5c4C4CCC(C(C)(C)C)CC4C3C2=O)cc1 (stereo not drawn) | > 100 | > 100 | > 100 | > 100 | > 100 | > 100 |  | > 100 | > 100 |  |  | > 100 | > 100 | > 100 | > 100 | 79.4 |  |  |  |
| COCCOCN(C(=O)C1=CCC2(CC1)OCCO2)c1ccccc1I | > 50 | > 50 | > 50 | > 50 | > 50 | > 50 | > 50 | > 50 | > 50 | > 50 | > 50 | > 50 |  | > 50 | > 50 | > 50 | > 50 | > 50 | > 50 |
| O=C1CC2CC=C[C@H]3c4cc5c(cc4C(=O)N1C23)OCO5 (stereo partly drawn) | > 50 | > 50 |  |  | > 50 | > 50 |  | > 50 | > 50 | > 50 |  | > 50 | > 50 | > 50 | > 50 | > 50 |  |  |  |
| O=C1C=C(N2CCCC2)C=C(N2CCCC2)C1 | > 100 | > 100 |  | > 100 | > 100 | > 100 | > 100 | > 100 | > 100 | > 100 | > 100 | > 100 |  | > 100 | > 100 | > 100 |  |  |  |
| COC(=O)c1ccc2c(c1)CC1(C2)Cc2cc3c(c(C(=O)OC)c2C1)CCCC3 (stereo not drawn) | > 100 | > 100 | > 100 | > 100 | > 100 | > 100 | > 100 | > 100 | > 100 | > 100 |  | > 100 | > 100 | > 100 | > 100 | > 100 | > 100 | > 100 | > 100 |
| CCOc1cc(/C=N\N(C)C)cc(/C=N\N(C)C)c1O | > 100 | > 100 | > 100 | > 100 | > 100 | > 100 | 46.8 | > 100 | > 100 | > 100 | 77 | > 100 | 65.4 | 56.2 | 34.3 | > 100 | > 100 |  | > 100 |
| CC(C)C1CC=NN1C(=O)OC(C)(C)C (stereo not drawn) | > 100 | > 100 |  | > 100 | > 100 | > 100 | > 100 | > 100 | > 100 | > 100 |  | > 100 | > 100 | > 100 | > 100 | > 100 | > 100 | > 100 |  |

From PubChem BioAssay (NCI)
